Results reported in patent publication US7208314B2, “Compositions and methods for drug delivery using pH sensitive molecules” (priority 2002, dated 2007).
Read-outs that look alike come from different tables or passages of the source. Peptide text beside a SMILES is read from it. * marks the point of attachment. X1 = C/C(C(=O)O)=C(\C)C(=O)*

Legend:
[1] = test system: 3T3 mouse embryonic fibroblast cells; test: In vitro transfection with DNA-PLL complexes with dimethylmaleamic KL3 and dimethylmaleamic KL3-PLL; assay type: cell-based; settings: pCIluc DNA/poly-L-lysine complex plus 10 mg modified peptide; opti-MEM 4 h; 48 h
Method: To a complex of plasmid DNA pCIluc (10 μg/mL, prepared according to Danko, I., Williams, P., Herweijer, H. Zhang, G., Latendresse, J. S., Bock, I., Wolff, J. A. Hum. Mol. Genetics 1997, 6, 1435.) and poly-L-lysine (40 μg/mL) in 0.5 mL water was added 10 mg of 2,3-dimethylmaleamic -KL3-PLL or 2,3-dimethylmaleamic -KL3. The DNA-poly-L-lysine-2,3-dimethylmaleamic peptide complexes were then added (200 μL) to a well containing 3T3 mouse embryonic fibroblast cells in opti-MEM. After 4 h, the media was replaced with 90% Dubelco's modified Eagle Media and 10% fetal bovine serum the cells were then allowed to incubate for 48 h. The cells were then harvested and then assayed for luciferase expression as previously reported (Wolff, J. A., Malone, R. W., Williams, P., Chong, W., Acsadi, G., Jani, A. and Felgner, P. L. Direct gene transfer into mouse muscle in vivo. Science, 1465–1468, 1990.). A Lumat LB 9507 (EG&G Berthold, Bad-Wildbad, Germany) luminometer was used. The amount of transfection was reported in relative light units and is the average transfection for two separate wells of cells.

[2] = Hemolysis assay: melittin or KL3 blocked by anionic polymer or dimethylmaleic anhydride; assay type: cell-based; settings: pH 7.5, read-out: Percent hemolysis
Method: The membrane-disruptive activity of the peptide melittin and subsequent blocking of activity by anionic polymers was measured using a red blood cell (RBC) hemolysis assay. RBCs were harvested by centrifuging whole blood for 4 min. They were washed three times with 100 mM dibasic sodium phosphate at the desired pH, and resuspended in the same buffer to yield the initial volume. They were diluted 10 times in the same buffer, and 200 uL of this suspension was used for each tube. This yields 10 ? 8 RBCs per tube. Each tube contained 800 uL of buffer, 200 uL of the RBC suspension, and the peptide with or without polymer. Each sample was then repeated to verify reproducibility. The tubes were incubated for 30 minutes in a 37 C water bath. They were spun for 5 min at full speed in the microcentifuge. Lysis was determined by measuring the absorbance of the supernatant at 541 nm, reflecting the amount of hemoglobin that had been released into the supernatant. Percent hemolysis was calculated assuming 100% lysis to be measured by the hemoglobin released by the red blood cells in water; controls of RBCs in buffer with no peptide were also run.

[3] = test system: 3T3 mouse embryonic fibroblast cells; test: In vitro transfection with DNA-PLL-KL3 and dimethylmaleamic KL3, luciferase expression; assay type: cell-based
Method: To a complex of plasmid DNA pCIluc (10 μg/mL, 0.075 mM in phosphate, 2.6 μg/μL pCIluc; prepared according to Danko, I., Williams, P., Herweijer, H. Zhang, G., Latendresse, J. S., Bock, I., Wolff, J. A. Hum. Mol. Genetics 1997, 6, 1435.) and poly-L-lysine (40 μg/mL) in 0.5 mL of 5 mM HEPES pH 7.5 was added succinylated poly-L-lysine (34,000 MW, Aldrich Chemical), 2,3-dimethylmaleamic melittin and 2,3-dimethylmaleamic KL3. The DNA-poly-L-lysine-2,3-dimethylmaleamic peptide complexes were then added (200 μL) to wells containing 3T3 mouse embryonic fibroblast cells in 290 mM glucose and 5 mM HEPES buffer pH 7.5. After 1.5 h, the glucose media was replaced with Dubelco's modified Eagle Media and the cells were allowed to incubate for 48 h. The cells were then harvested and then assayed for luciferase expression as previously reported (Wolff, J. A., Malone, R. W., Williams, P., Chong, W., Acsadi, G., Jani, A. and Felgner, P. L. Direct gene transfer into mouse muscle in vivo. Science, 1465–1468, 1990.). A Lumat LB 9507 (EG&G Berthold, Bad-Wildbad, Germany) luminometer was used. The amount of transfection was reported in relative light units and is the average transfection for two separate wells of cells.

[4] = Kinetics of conversion of dimethylmaleamic modified amines to amines at pH 5 (trinitrobenzenesulfonate); assay type: physicochemical; settings: 40 mM sodium acetate buffer pH 5 and 1 mM cetyltrimetylammonium bromide
Method: Dimethyl maleamic modified poly-L-lysine (10 mg/mL) was incubated in 10 mM sodium acetate buffer pH 5. At various times, aliquots (10 μg) were removed and added to 0.5 mL of 100 mM borax solution containing 0.4 mM trinitrobenzenesulfonate. A half an hour later, the absorbance of the solution at 420 nm was measured. To determine the concentration of amines at each time point, the extinction coefficient was determine for the product of trinitrobenzenesulfonate and poly-L-lysine. Using this extinction coefficient we were able to calculate the amount of amines and maleamic groups at each time point. A plot of ln (At/A0) as a function of time was a straight line whose slope is the negative of the rate constant for the conversion of maleamic acid to amine and anhydride, where At is the concentration of maleamic acid at a time t and A0 is the initial concentration of maleamic acid. For two separate experiments we calculated rate constants of […] which correspond to half lives of roughly 10 and 4 minutes respectively.
Dimethyl maleamic modified KL3 (0.1 mg/mL) was incubated in 40 mM sodium acetate buffer pH 5 and 1 mM cetyltrimetylammonium bromide. At various times, aliquots (10 μg) were removed and added to 0.05 mL of 1 M borax solution containing 4 mM trinitrobenzenesulfonate. A half an hour later, the absorbance of the solution at 420 nm was measured. […]

## C/C(C(=O)O)=C(\C)C(=O)NCCCC[C@H](NC(=O)/C(C)=C(/C)C(=O)O)C(=O)N[C@@H](CC(C)C)C(=O)N[C@@H](CC(C)C)C(=O)N[C@@H](CCCCNC(=O)/C(C)=C(/C)C(=O)O)C(=O)N[C@@H](CC(C)C)C(=O)N[C@@H](CC(C)C)C(=O)N[C@@H](CC(C)C)C(=O)N[C@@H](CCCCNC(=O)/C(C)=C(/C)C(=O)O)C(=O)N[C@@H](CC(C)C)C(=O)N[C@@H](Cc1c[nH]c2ccccc12)C(=O)N[C@@H](CC(C)C)C(=O)N[C@@H](CCCCNC(=O)/C(C)=C(/C)C(=O)O)C(=O)N[C@@H](CC(C)C)C(=O)N[C@@H](CC(C)C)C(=O)N[C@@H](CCCCNC(=O)/C(C)=C(/C)C(=O)O)C(=O)N[C@@H](CC(C)C)C(=O)N[C@@H](CC(C)C)C(=O)N[C@@H](CC(C)C)C(=O)N[C@@H](CCCCNC(=O)/C(C)=C(/C)C(=O)O)C(=O)N[C@@H](CC(C)C)C(=O)N[C@@H](CC(C)C)C(=O)O [2,3-dimethylmaleamic KL3] (X1-K(X1)LLK(X1)LLLK(X1)LWLK(X1)LLK(X1)LLLK(X1)LL-OH; N-terminus and C-terminus assumed)
[1]
  Relative Light Units (luciferase expression): 20927 Relative Light Units
[2]; 30 minutes, 37 C
  hemolysis: 4%
[2]; post incubation at pH 5.4 30 seconds
  hemolysis: 85%
[3]; pCIluc DNA/poly-L-lysine complex plus named additive, 48 h, average of two wells
  Relative Light Units (luciferase expression): 49535 Relative Light Units
[3]; value in parentheses
  Relative Light Units relative to Succinylated poly-L-lysine: 7.7
[4]
  rate constant for the conversion of maleamic acid to amine and anhydride: 0.087 s⁻¹
